Source: PMC5989272, “Transfer Hydrogenation and Antiproliferative Activity of Tethered Half-Sandwich Organoruthenium Catalysts” (Organometallics, 2018)

Tests used:
[1] = NAD+ to NADH, formate hydride donor; Ru/NAD+/formate 1/4/25, DMSO-d6/D2O, pH* 7.2, 310 K
Description: (§1) Catalytic transfer hydrogenation reactions of complexes 1–4 and sodium formate as hydride donor for conversion of nicotinamide adenine dinucleotide (NAD^+) to NADH were studied in aqueous media by UV–visible spectroscopy by following the absorbance at 340 nm for NADH and by ^1H NMR spectroscopy (20% DMSO-d6 in D2O) by monitoring peaks corresponding to 1,4-NADH.
Complexes 1–4 were dissolved in DMSO-d6/D2O (3/2 v/v; 1.4 mM) in a glass vial. Aliquots (200 μL) of solutions of sodium formate (35 mM) and NAD^+ (5.6 mM) in D2O were added, and the pH* was adjusted to 7.2 ± 0.1, for a final volume of 0.64 mL (Ru complex 0.44 mM, NAD^+ 1.75 mM, NaHCO2 10.94 mM; molar ratio 1/4/25). The solution was transferred to a 5 mm NMR tube, and a ^1H NMR spectrum was recorded at 310 K every 162 s until the completion of the reaction. Molar ratios of NAD^+ and NADH were determined by integrating the peaks corresponding to resonances for NAD^+ (9.33 ppm) and 1,4-NADH (6.96 ppm). The turnover number (TON) for the reaction was calculated [drawing 1] where In is the integral of the signal at n ppm and [NAD^+] is the concentration of NAD^+ at the start of the reaction.

[2] = system: A2780Cis cisplatin-resistant ovarian cancer cells; experiment: Antiproliferative activity (SRB assay), A2780Cis; format: cell-based, human; conditions: for IC50: 24 h drug exposure, 72 h recovery in drug-free medium; for RI (resistance index): ratio of IC50 A2780Cis to parental A2780
Description: (§2) A2780 and A2780Cis human ovarian, A549 human lung, HEPG 2 human hepatocellular, MCF 7 human breast cancer, and MRC 5 human normal fibroblast cell lines were grown in Roswell Park Memorial Institute medium (RPMI-1640) supplemented with 10% of fetal calf serum, 1% of 2 mM glutamine, and 1% penicillin/streptomycin. All cells were grown as adherent monolayers at 310 K with 5% CO2 humidified, and all cells were passaged at ca. 80% confluency.
(§3) The antiproliferative activity and cytotoxicity of complexes 1–4 were determined in five different cancer cell lines and one human normal cell line. In general, about 5000 cells per well were seeded in 96-well plates. The plates were preincubated with drug-free medium at 310 K for 48 h before adding the tested compounds (various concentrations). Stock solutions of complexes 1–4 were prepared in DMSO/cell culture medium, and exact complex concentrations were determined by ICP-OES. […] A further cell recovery for 72 h was allowed in drug-free medium at 310 K. The sulforhodamine B (SRB) assay was used to determine cell viability. IC50 values, as the concentration that causes 50% cell death, were determined as duplicates of triplicates in two independent sets of experiments, and their standard deviations were calculated.

[3] = system: MRC5 normal human lung fibroblast cells; experiment: Cytotoxicity (SRB assay), MRC5 normal fibroblasts; format: cell-based; conditions: 24 h drug exposure, 72 h recovery, read-out: IC50 MRC 5
Description: as §2, §3

[4] = system: MCF7 human breast cancer cells; experiment: Antiproliferative activity (SRB assay), MCF7; format: cell-based; conditions: 24 h drug exposure, 72 h recovery in drug-free medium; read-out: IC50 MCF 7
Description: as §2, §3

[5] = NAD+ to NADH, formate hydride donor; Ru/NAD+/formate 1/6/1200, pH 7.2, 310 K, 340 nm
Description: as §1
Complexes 1–4 were dissolved in DMSO/H2O (1/9 v/v) (84 μM) in a glass vial. Solutions of sodium formate (102 mM) and NAD^+ in H2O (510 μM) were also prepared and then mixed at 310 K. In a typical experiment, an aliquot of 330 μL from each solution was placed in a 1 mL cuvette and the pH adjusted to 7.2 before the sample was introduced into the UV–vis instrument, giving a total volume of 1 mL (final concentrations were Ru complex 28 μM, NAD^+ 170 μM, NaHCO2 34 mM, molar ratio 1/6/1200). UV spectra were recorded every 5 min until completion of the reaction. The spectrum was monitored for an increase in the band at 340 nm, which corresponds to the absorption of NADH.

[6] = system: A2780 human ovarian cancer cells; experiment: Antiproliferative activity (SRB assay), A2780; format: cell-based; conditions: 24 h drug exposure, 72 h recovery in drug-free medium
Description: as §2, §3

[7] = system: HEPG2 human hepatocellular cancer cells; experiment: Antiproliferative activity (SRB assay), HEPG2; format: cell-based; conditions: 24 h drug exposure, 72 h recovery in drug-free medium
Description: as §2, §3

[8] = system: A549 human lung cancer cells; experiment: Antiproliferative activity (SRB assay), A549; format: cell-based; conditions: 24 h drug exposure, 72 h recovery in drug-free medium
Description: as §2, §3

[9] = system: A2780 human ovarian cancer cells; experiment: ROS/superoxide induction (flow cytometry); format: cell-based; conditions: IC50 concentration, 24 h; pyocyanin 30 min
Description: The total level of oxidative stress, including H2O2, peroxy and hydroxyl radical, peroxynitrite, NO, and superoxide production, was monitored using the green channel FL1 and orange channel FL2, respectively.
Positive controls were obtained by exposure of cells to pyocyanin for 30 min. Data were processed using Flowjo software. At all times, samples were kept under dark conditions to avoid light-induced ROS production.

[10] = system: A2780 human ovarian cancer cells; experiment: Cell viability on coincubation with sodium formate (SRB); conditions: 0.5, 1 and 2 mM sodium formate
Description: Experiments included three sets of controls: the first, negative controls, consisted of untreated cells (only vehicle exposure), a second set was exposed to three concentrations of sodium formate (0.5, 1, and 2 mM), and a third set was exposed to cisplatin as positive controls. […] Following 72 h of recovery time in drug-free medium, cell survival was evaluated using the Sulforhodamine B colorimetric assay.
Cell viability assays of complexes 1–4 were carried out with A2780 ovarian cancer cells with sodium formate. […] Drug stock solutions (ca. 100 μM) were prepared as described for in vitro growth inhibition assays and then further diluted with media until working concentrations were achieved. Separately, a stock solution of sodium formate was prepared in saline. The complex and formate solutions were added to each well independently within 5 min of each other. All other experimental conditions were kept unchanged (drug exposure, cell recovery time, and end point assay used). The standard deviations were calculated.

[11] = system: A2780 human ovarian cancer cells; conditions: 24 h exposure at equipotent IC50 concentration, no recovery
Description: (§4) ICP-MS and ICP-OES analyses were carried out on Agilent Technologies 7500 series and PerkinElmer Optima 5300 DV series instruments, respectively. The double-deionized (DDW) water used for both analyses was from a Millipore Milli-Q water purification system and a USF Elga UHQ water deionizer. The Ruthenium Specpure plasma standard (ruthenium chloride, 1004 ± 5 μg/mL in 10% v/v hydrochloric acid) was diluted with 3.6% v/v HNO3, and calibrants were prepared freshly at concentrations of 0.1–500 ppb for ICP-MS and 50–700 ppb for ICP-OES. In particular, calibration standards for ICP-OES analysis were adjusted with standard sodium chloride (TraceSELECT) solution to match the sample salinity. The instrument was set to detect ^101Ru with typical detection using no-gas mode for ICP-MS analysis.
(§5) Cellular Ru accumulations for complexes 2 and 4 were determined on A2780 ovarian and A2780 cisplatin-resistant ovarian cancer cells. Approximately 2 × 10^6 cells were seeded in a six-well plate and preincubated in drug-free medium at 310 K for 24 h, and stock solutions of both complexes were prepared in a mixture of DMSO/cell culture medium and their accurate Ru concentrations were determined by ICP-OES. […] After this time, cells were treated with trypsin and counted and cell pellets were collected. […] Statistical significances of variations were determined using Welch’s t-tests.

A2780Cis cells = conditions: 24 h exposure at equipotent IC50 concentration, no recovery
Description: as §4, §5

[12] = set-up: method as in PMID 16604356; conditions: cited from earlier work
[13] = system: single-stranded 50-mer oligonucleotide; experiment: Binding to single-stranded 50-mer oligonucleotide (FAAS); conditions: ri = 0.5, 0.05 M NaClO4, 310 K, 24 h, dark
Description: (§6) After 24 h the reaction was stopped, and samples were exhaustively dialyzed against water. The ruthenium contents in these samples were determined by FAAS, and the concentrations of DNA were determined by absorption spectroscopy.

[14] = system: double-stranded 50-mer oligonucleotide; experiment: Binding to double-stranded 50-mer oligonucleotide (FAAS); conditions: ri = 0.5, 0.05 M NaClO4, 310 K, 24 h, dark
Description: as §6

[15] = system: double-helical calf thymus DNA (ct-DNA); experiment: Binding to calf thymus DNA (FAAS after dialysis); conditions: ri 0.1 and 0.5, 10 mM NaClO4, 310 K, 24 h
Description: The reaction was terminated after 24 h of incubation, and samples were exhaustively dialyzed against water. The ruthenium content in these samples was determined by flameless atomic absorption spectrometry (FAAS) and the concentration of DNA by absorption spectrophotometry.

| IC50 [2] | IC50 [4] | IC50 [6] | IC50 [7] | IC50 [8] | Compound | TOF (NMR) [1] | RI (resistance index) [2] | IC50 [3] | TOF (UV–vis) [5] | other results |
| --- | --- | --- | --- | --- | --- | --- | --- | --- | --- | --- |
| > 50 µM | 28.9 ± 0.9 µM | 23 ± 1 µM | 27.8 ± 0.1 µM | 33 ± 1 µM | [Ru(η^6-Ph(CH2)3-ethylenediamine-N-Ms)Cl] [Complex 1] | 3.79 ± 0.05 h^–1 | >2 | 31 ± 1 µM | 5.8 ± 0.2 h^–1 | – |
| – | – | – | – | – | Cn1c2cccc(=O)c-2nc2ccccc21 [Pyocyanin, pyocyanin] | – | – | – | – | Cell Populations FL-1+/FL-2+ [9]: 96.1 ± 0.8%; Cell Populations FL-1+/FL-2- (total oxidative stress) [9]: 1.5 ± 0.6%; Cell Populations FL-1-/FL-2+ (superoxide) [9]: 2.5 ± 0.9%; Cell Populations FL-1-/FL-2- [9]: 0.45 ± 0.08% |
| – | – | – | – | – | O=C[O-].[Na+] [sodium formate] | – | – | – | – | toxicity of formate alone [10]: not toxic |
| > 50 µM | 24 ± 3 µM | > 50 µM | > 50 µM | 31 ± 2 µM | [Ru(η^6-Ph(CH2)3-ethylenediamine-N-Tf)Cl] [Complex 3] | 8.9 ± 0.3 h^–1 | – | 28 ± 3 µM | 8.69 ± 0.07 h^–1 | – |
| 13.4 ± 0.3 µM | 7.3 ± 0.2 µM | 1.2 ± 0.02 µM | 5.7 ± 0.9 µM | 3.1 ± 0.1 µM | [NH2][Pt]([NH2])([Cl])[Cl] [CDDP, cisplatin, reference compound] | – | 11 | 12.8 ± 0.3 µM | – | selectivity index between MRC5 normal cells and A2780Cis cancer cells ([2]; MRC5 vs A2780Cis): 0.95 |
| – | – | – | – | – | F[P-](F)(F)(F)(F)F.NCCN.[Cl][Ru+].c1ccc(-c2ccccc2)cc1 [RM175, [(η^6-biph)Ru(en)Cl]PF6] | – | – | – | – | TOF for TH reduction of NAD+ [12]: 0.18 h^–1 |
| – | – | – | – | – | Cc1ccc(C(C)C)cc1.Cc1ccc(S(=O)(=O)[N](CCN)[Ru][Cl])cc1 [JS2, [(η^6-p-cym)Ru(TsEn)Cl]] | – | – | – | – | TOF for TH reduction of NAD+ [12]: 2.88 h^–1; Ru bound to single-stranded oligonucleotide [13]: No Ru associated; Ru bound to double-stranded oligonucleotide [14]: No Ru associated; ruthenium bound to ct-DNA [15]: No detectable amount of ruthenium |

| Compound | IC50 [2] | IC50 [4] | IC50 [6] | IC50 [7] | IC50 [8] | TOF (NMR) [1] | RI (resistance index) [2] | IC50 [3] | TOF (UV–vis) [5] | other results |
| --- | --- | --- | --- | --- | --- | --- | --- | --- | --- | --- |
| [Ru(η^6-Ph(CH2)3-ethylenediamine-N-Nb)Cl] [Complex 4] | > 50 µM | 9.9 ± 0.5 µM | 16 ± 0.3 µM | 23 ± 4 µM | 30 ± 1 µM | 8.5 ± 0.2 h^–1 | >3 | 26 ± 1 µM | 9.9 ± 0.2 h^–1 | cellular Ru content [11]: 150 ± 38 ng per million cells; cellular Ru content (A2780Cis cells): 241 ± 10 ng per million cells |
